Like-named read-outs stand apart in the source and are kept apart here.
Columns and labels:
Recombinant renin = target: T1, Recombinant renin (Homo sapiens, UniProt P00797); assay: Renin inhibitory activity (renin-inhibitor screening assay kit); type: biochemical; details: isolated compounds, Table S7; read-out: Inhibition (IC50) Renin (converted)
T1 construct: purchased BPS Bioscince
T1 sequence (P00797 67-406): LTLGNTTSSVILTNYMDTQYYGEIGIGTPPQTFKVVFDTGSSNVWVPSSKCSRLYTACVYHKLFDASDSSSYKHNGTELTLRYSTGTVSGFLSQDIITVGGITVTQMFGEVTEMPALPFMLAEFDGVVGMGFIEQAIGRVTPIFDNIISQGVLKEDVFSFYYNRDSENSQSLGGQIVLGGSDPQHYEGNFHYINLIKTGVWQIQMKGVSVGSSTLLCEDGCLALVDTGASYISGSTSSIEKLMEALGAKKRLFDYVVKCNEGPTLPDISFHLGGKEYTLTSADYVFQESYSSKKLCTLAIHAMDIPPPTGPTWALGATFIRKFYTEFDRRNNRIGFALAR
Method: all of analytical grade. […]
(§1) Phenolic acids and flavonoids used in HPLC analysis as well as all other reagents for biological investigations were obtained from Sigma Chemical Company […]
(§2) Inhibitory activity against key enzymes related to metabolic syndrome (MS) All assays were performed in 96-well plates. Stock solutions of the extract (100 mg/mL), fractions (100 mg/mL), and isolated compounds (1000 µM) were prepared. Tested samples that exceeded […]
(§3) inhibitory concentration (IC50). The percentage of enzyme inhibition was calculated according to […]
% Inhibition = (A−B) − (C−D) x 100 […]
Renin inhibitory activity
The renin inhibitory activity was examined according to a previously described method using renin-inhibitor screening assay kit (BPS Bioscince, San Diego, CA, USA) and quinapril as a reference drug. Recombinant renin enzyme (50 μL) was dissolved in 50-mM Tris-HCl buffer (pH 8.0) and 100-mM NaCl (assay buffer) and stored at –80°C for further analysis. Twenty μL of renin substrate (A500 μM in DMSO), 150 μL of assay buffer, and 10 μL of each sample were used to prepare test solutions (10mg/ml in methanol). The blank samples were made using 10 μL of the sample, 20 μL of the substrate, and 160 μL of assay buffer. The positive control samples were created using 10 μL of methanol, 20 μL of substrate, and 150 μL of assay buffer. The positive control and tested samples were combined with 10 μL of the renin solution for the assay in order to catalyze the reaction. After that, the reaction mixture was incubated for 45 minutes at 37 °C.
The fluorescence generated at the 340 nm excitation and 490 nm emission wavelengths was measured using a microplate reader.
Xanthine oxidase (XO) inhibitory activity
Xanthine oxidase (XO) inhibitory potential was carried out according to a previous designed procedure using xanthine oxidase (XO, EC 1.17.3.2; Biovision, USA). Allopurinol was applied as a reference drug. Immediately prior to use, a mixture was made up of 50 μL of sample solution, 35 μL of phosphate buffer (70 mM, pH = 7.5), and 30 μL of new enzyme solution (0.01 units/mL in the same buffer). The reaction was started by adding 60 μL of the substrate solution (150 μM xanthine in the same buffer) following a pre-incubation at 25 °C for 15 minutes. After that, the mixture was incubated at 25 °C for 30 min. After adding 25 μL of 1 M HCl to terminate the reaction, the absorbance was measured at 290 nm with a microplate reader as previously

[1] = Ferric reducing antioxidant power (FRAP) assay; parameters: FRAP AA (%) antioxidant activity percentage: concentration or dose not given beside the values; details: for FRAP antioxidant activity: Trolox equivalent per gram of sample, mean ± SD, n=3; for FRAP AA (%) antioxidant activity percentage: compared to ascorbic acid (=100)
Method: all of analytical grade. An electrothermal 9100 (UK) was used for the determination of melting points (uncorrected). A Jenway model 6800 spectrophotometer was utilized for recording UV spectra. A Tecan, microplate reader, ((Infinite F50, Switzerland)) was used to measure the absorbances. A Bruker NMR system was used for 1H-NMR (400 MHz) and 13C-NMR (100 MHz).
The NMR spectra were determined in CD3OH and DMSO-d6. Chemical shifts are given in δ (ppm) relative to the internal standard TMS. Phenolic acids and flavonoids used in HPLC analysis as well as all other reagents for biological investigations were obtained from Sigma Chemical Company […]
Determination of the antioxidant activity
2,2`-Azino-bis(3-ethylbenzothiazoline-6-sulfonic acid) (ABTS), ferric reducing antioxidant power (FRAP), and oxygen radical absorbance capacity (ORAC) assays were performed according to the previously published procedures. Ascorbic acid was used as a reference antioxidant […]
drug. […]

α-glucosidase = target: T2, α-glucosidase (Saccharomyces cerevisiae, UniProt P53341); assay: biochemical; details: isolated compounds, Table S7
T2 construct: purchased Sigma
T2 sequence (P53341 whole entry): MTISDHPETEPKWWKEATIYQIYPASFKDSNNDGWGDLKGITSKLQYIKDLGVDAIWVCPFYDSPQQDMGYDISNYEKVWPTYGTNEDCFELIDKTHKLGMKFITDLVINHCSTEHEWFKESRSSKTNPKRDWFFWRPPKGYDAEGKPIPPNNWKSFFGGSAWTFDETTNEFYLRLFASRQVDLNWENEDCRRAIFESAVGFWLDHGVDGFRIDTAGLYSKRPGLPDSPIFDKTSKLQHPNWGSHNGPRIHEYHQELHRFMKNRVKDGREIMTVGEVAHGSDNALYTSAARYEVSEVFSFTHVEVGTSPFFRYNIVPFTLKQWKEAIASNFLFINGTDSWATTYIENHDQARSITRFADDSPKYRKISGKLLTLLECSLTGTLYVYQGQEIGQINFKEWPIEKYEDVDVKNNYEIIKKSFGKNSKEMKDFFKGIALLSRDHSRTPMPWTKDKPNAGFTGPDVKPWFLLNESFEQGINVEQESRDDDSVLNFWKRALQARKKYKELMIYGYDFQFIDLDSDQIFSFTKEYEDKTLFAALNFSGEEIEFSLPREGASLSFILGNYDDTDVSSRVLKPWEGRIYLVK
Method: as §1, §2, §3
% Inhibition = (A−B) − (C−D) x 100
A is the activity of the enzyme without tested samples, B is the control of A with neither tested samples nor enzyme, C, and D denote the activity of the test solutions with and without the tested […]
α-Glucosidase inhibitory activity
α-Glucosidase inhibition assays were performed according to a previously described method.
The tested samples were mixed with glutathione, α-glucosidase solution (Saccharomyces cerevisiae, EC 3.2.1.20, Sigma) in phosphate buffer , and the chromogenic substrate p-nitrophenyl-D-glucopyranoside (pNPG). Tested samples (50 μL) were incubated with α-glucosidase (100 μL.
0.6 U mL−1) in the presence of phosphate buffer (0.1 M, pH 6.9) for 10 min at 37 °C. Fifty μL of […] pNPG in phosphate buffer (pH 6.9) was added, and the mixture was incubated again for 12 min at 37 °C. Enzyme activity was evaluated by measuring ρ-nitrophenol release from the ρNPG […]
Absorbance at 405 nm was measured. […]

[2] = Inhibition (IC50) α-Glucosidase

Row | Structure (SMILES) | IC50 (Recombinant renin) [µM] | FRAP antioxidant activity [1] [μM TE/g] | FRAP antioxidant activity ([1]; listed as Cinnamic acid (P6)) [μM TE/g] | FRAP AA (%) antioxidant activity percentage [1] [%] | IC50 (α-glucosidase; [2]) [µM] | IC50 (α-glucosidase; read-out: Inhibition (IC50) α-Glucosidase) [µM]
1 | O=C(/C=C/c1ccc(O)c(O)c1)O[C@@H]1C[C@](O)(C(=O)O)C[C@@H](O)[C@H]1O [P4, chlorogenic acid] | 47.8 ± 0.25 | – | – | – | – | –
2 | O=C(O)/C=C/c1ccccc1 [P6, cinnamic acid] | 20.7 ± 0.8 | 141.26±0.91 | 141.26 ± 0.91 | 91.01 | 0.75 | –
3 | COc1cc(-c2oc3cc(O)cc(O)c3c(=O)c2O[C@@H]2O[C@H](CO)[C@@H](O)[C@H](O)[C@H]2O)ccc1O [P3, isorhamnetin-3-O-β-D-glucopyranoside] | 34.8 ± 0.79 | 125.08±0.72 | – | 80.58 | – | 1.37 ± 0.86
4 | C[C@@H]1O[C@@H](OC[C@H]2O[C@@H](Oc3c(-c4ccc(O)c(O)c4)oc4cc(O)cc(O)c4c3=O)[C@H](O)[C@@H](O)[C@@H]2O)[C@H](O)[C@H](O)[C@H]1O [P1, rutin] | 40.8 ± 1.3 | 99.28 ±0.98 | – | 63.96 | – | –
5 | O=c1c(O[C@@H]2O[C@H](CO)[C@@H](O)[C@H](O)[C@H]2O)c(-c2ccc(O)c(O)c2)oc2cc(O)cc(O)c12 [P2, isoquercitrin] | 24.8 ± 1.3 | 137.27±0.53 | – | 88.44 | 1.12 ± 0.38 | –
